Source: paper PMC9138568 (2022)

Tested on: G3-OTAapt1-FAM (F1) (DNA, aptamer) GGGGATCGGGTGTGGGTGGCGTAAAGGGAGCATC
Assay: fluorescence quenching (FAM, guanine PIET)
Details: Na+ 120 mM, Ca2+ 3 mM; 10 mM Tris-HCl pH 8.4, room temperature; 20 nM F1; calibration curve only

binding: yes
Compound: C[C@@H]1Cc2c(Cl)cc(C(=O)N[C@@H](Cc3ccccc3)C(=O)O)c(O)c2C(=O)O1
